Here are results for eight compounds from patent publication US20220211630A1, “SOLID NANOPARTICLE FORMULATION OF WATER INSOLUBLE PHARMACEUTICAL SUBSTANCES WITH REDUCED OSTWALD RIPENING AND IMMEDIATE DRUG RELEASE FOLLOWING INTRAVENOUS ADMINISTRATION” (priority 2019, published 2022).

The structures appear in SMILES notation. Converted amounts (≈) assume the structure as drawn. Read-outs that look alike come from different tables or passages of the source.

In one data set the target is human CB1 receptors (Homo sapiens, UniProt P21554). As to conditions: read-out: Affinity; cited from earlier work.
human CB1 receptors, sequence (P21554 whole entry): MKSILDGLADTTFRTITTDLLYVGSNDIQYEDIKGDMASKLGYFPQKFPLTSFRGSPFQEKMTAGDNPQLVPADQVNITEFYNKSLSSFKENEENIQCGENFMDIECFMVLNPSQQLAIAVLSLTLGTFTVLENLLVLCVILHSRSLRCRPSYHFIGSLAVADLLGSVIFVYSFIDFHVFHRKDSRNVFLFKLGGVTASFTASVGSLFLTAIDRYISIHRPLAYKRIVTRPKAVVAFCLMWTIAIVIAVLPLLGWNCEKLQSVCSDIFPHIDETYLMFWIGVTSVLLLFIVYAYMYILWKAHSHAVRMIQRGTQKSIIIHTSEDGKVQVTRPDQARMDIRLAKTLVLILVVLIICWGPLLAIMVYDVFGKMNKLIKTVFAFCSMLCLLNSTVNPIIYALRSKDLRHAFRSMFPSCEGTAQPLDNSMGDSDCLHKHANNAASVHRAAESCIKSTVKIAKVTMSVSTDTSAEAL
Another data set concerns the target human CB2 receptors (Homo sapiens, UniProt P34972). The settings on record: read-out: Affinity; cited from earlier work.
For data set [1] the following is noted: cited from earlier work.
For data set [2] the following is noted: oral, human gastrointestinal tract; cited from earlier work.
The nature of data set [3]: Drug solubility in supernatant of reconstituted suspension after ultracentrifugation (HPLC). The class given is physicochemical. As to conditions: room temperature. As to the method: The quantities of docetaxel, rapamycin and 17-AAG and human albumin in the supernatant were measured by high performance liquid chromatography (HPLC) and the results are summarized in Table 9.
The quantities of ixabepilone and rapamycin in the supernatant were measured by high performance liquid chromatography (HPLC) and the results are summarized in Table 18.

[4] abbreviates: LBI-1103 (Lot RAD002) reconstituted suspension (5 mg/mL Docetaxel; 5 mg/mL Rapamycin and 10 mg/mL 17-AAG), 87,000 rpm 1 hour.
[5] abbreviates: LBI-0728 (Lot CRX001) reconstituted suspension (2 mg/mL Ixabepilone and 5 mg/mL Rapamycin), 87,000 rpm 1 hour.

human CB2 receptors, sequence (P34972 whole entry): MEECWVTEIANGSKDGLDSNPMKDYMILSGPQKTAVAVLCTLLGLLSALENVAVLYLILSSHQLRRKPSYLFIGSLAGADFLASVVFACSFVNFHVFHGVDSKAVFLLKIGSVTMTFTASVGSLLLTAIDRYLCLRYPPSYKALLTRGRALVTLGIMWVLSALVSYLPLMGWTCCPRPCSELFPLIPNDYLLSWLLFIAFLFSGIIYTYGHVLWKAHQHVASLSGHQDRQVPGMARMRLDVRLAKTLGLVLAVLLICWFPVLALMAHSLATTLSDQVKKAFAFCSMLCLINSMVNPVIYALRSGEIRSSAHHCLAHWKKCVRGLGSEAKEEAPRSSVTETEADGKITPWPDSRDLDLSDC

For `CCCCCCC(C)(C)c1cc(O)c2c(c1)OC(C)(C)C1CCC(=O)CC21` (racemic) [Nabilone, (±)-trans-3-(1,1-dimethylheptyl)-6,6a,7,8,10,10a-hexahydro-1-hydroxy-6-6-dimethyl-9H-dibenzo[b,d]pyran-9-one], the Ki at human CB1 receptors was 2.2 nM; on human CB2 receptors, 1.8 nM. For the same compound, the Solubility in water result in data set [1] (pH values ranging from 1.2 to 7.0) is “less than 0.5 mg/L”. In data set [2], the “Absorption when administered orally” value is given as “completely absorbed”.

With `CC(=O)O[C@@]12CO[C@@H]1C[C@H](O)[C@@]1(C)C(=O)[C@H](O)C3=C(C)[C@@H](OC(=O)[C@H](O)[C@@H](NC(=O)OC(C)(C)C)c4ccccc4)C[C@@](O)([C@@H](OC(=O)c4ccccc4)[C@H]21)C3(C)C` [Docetaxel], the solubility in data set [3] (setting [4]) stood at 114 µg/mL. Further, the Solubility in water entry in data set [1] is “about 14 mg/L”.

Consider `CO[C@H]1C[C@@H]2CC[C@@H](C)[C@@](O)(O2)C(=O)C(=O)N2CCCC[C@H]2C(=O)O[C@H]([C@H](C)C[C@@H]2CC[C@@H](OCCO)[C@H](OC)C2)CC(=O)[C@H](C)/C=C(\C)[C@@H](O)[C@@H](OC)C(=O)[C@H](C)C[C@H](C)/C=C/C=C/C=C/1C` [Everolimus, 40-O-(2-Hydroxy)ethyl rapamycin], for which the concentration in solution in data set [3] (LBI-0609 (Lot CEP002) reconstituted suspension (X mg/mL Everolimus and 5 mg/mL Paclitaxel), 87,000 rpm 1 hour) (solubility) came to 14 µg/mL (≈ 14.6 µM).

As for `C=CCNC1=C2C[C@@H](C)C[C@H](OC)[C@H](O)[C@@H](C)/C=C(\C)[C@H](OC(N)=O)[C@@H](OC)/C=C\C=C(/C)C(=O)NC(=CC1=O)C2=O` [Example 17AAG, 17-allylaminogeldanamycin], the solubility in data set [3] (setting [4]) was 108 µg/mL.

As for `C/C(=C\c1csc(C)n1)[C@@H]1C[C@@H]2O[C@]2(C)CCC[C@H](C)[C@H](O)[C@@H](C)C(=O)C(C)(C)[C@@H](O)CC(=O)N1` [Ixabepilone], in data set [3] (setting [5]), the solubility is 407 µg/mL. In addition, the Solubility in water entry in data set [1] is on record as “about 3.5 mg/L”.

Consider `CC(=O)O[C@H]1C(=O)[C@@]2(C)[C@H]([C@H](OC(=O)c3ccccc3)[C@]3(O)C[C@H](OC(=O)[C@H](O)[C@@H](NC(=O)c4ccccc4)c4ccccc4)C(C)=C1C3(C)C)[C@]1(OC(C)=O)CO[C@@H]1C[C@@H]2O` [Paclitaxel], for which, in data set [3] (LBI-0609 (Lot CEP002) reconstituted suspension (Everolimus and 5 mg/mL Paclitaxel), 87,000 rpm 1 hour), the “Drug Solubility in Supernatant” value is 82 µg/mL. Moreover, the Solubility in water entry in data set [1] is listed as “about 0.4 mg/L”.

Take `CO[C@H]1C[C@@H]2CC[C@@H](C)[C@@](O)(O2)C(=O)C(=O)N2CCCC[C@H]2C(=O)O[C@H]([C@H](C)C[C@@H]2CC[C@@H](O)[C@H](OC)C2)CC(=O)[C@H](C)/C=C(\C)[C@@H](O)[C@@H](OC)C(=O)[C@H](C)C[C@H](C)/C=C/C=C/C=C/1C` [Rapamycin]: the solubility came out at 22 µg/mL in data set [3] (setting [5]) and 19 µg/mL in data set [3] (setting [4]). Besides, the “Solubility in water” value in data set [1] is given as “insoluble in water”.

Consider `CO[C@H]1C(=O)[C@]2(C)[C@@H](OC)C[C@H]3OC[C@@]3(OC(C)=O)[C@H]2[C@H](OC(=O)c2ccccc2)[C@]2(O)C[C@H](OC(=O)[C@H](O)[C@@H](NC(=O)OC(C)(C)C)c3ccccc3)C(C)=C1C2(C)C` [cabazitaxel], for which the Solubility in water entry in data set [1] is “about 8 mg/L”.
